According to ChEMBL document CHEMBL4342527, “Discovery of Novel Fungal Lanosterol 14α-Demethylase (CYP51)/Histone Deacetylase Dual Inhibitors to Treat Azole-Resistant Candidiasis” (J Med Chem, 2020):
Values after ≈ are worked out from the molar mass of the structure shown. Active and inactive are the calls of the source. The calls are words filed in the database; no cut-off is given here.

Key:
[1] = system: Candida albicans; experiment: Antifungal activity against azole-sensitive Candida albicans SC5314 after 48 hrs by spectrophotometry-based serial microdilution method; format: functional; conditions: Candida albicans, SC5314, 48 h; read-out: MIC80
[2] = system: Candida albicans; experiment: Antifungal activity against azole-resistant Candida albicans 0304103 after 48 hrs by spectrophotometry-based serial microdilution method; format: functional; conditions: Candida albicans, 0304103, 48 h
[3] = system: Candida albicans; experiment: Antifungal activity against azole-resistant Candida albicans 7781 after 48 hrs by spectrophotometry-based serial microdilution method; format: functional; conditions: Candida albicans, 7781, 48 h
[4] = system: Candida albicans; experiment: Antifungal activity against azole-resistant Candida albicans 4108 after 48 hrs by spectrophotometry-based serial microdilution method; format: functional; conditions: Candida albicans, 4108, 48 h
[5] = system: A549; experiment: Cytotoxicity against human A549 cells assessed as reduction in cell viability after 48 hrs by CCK-8 assay based spectrophotometric analysis; conditions: A549, 48 h
[6] = Selectivity index, ratio of IC50 for human A549 cells to MIC80 for azole-resistant Candida albicans 0304103; format: toxicity
[7] = Selectivity index, ratio of IC50 for human A549 cells to MIC80 for azole-resistant Candida albicans 7781; format: toxicity
[8] = Selectivity index, ratio of IC50 for human A549 cells to MIC80 for azole-resistant Candida tropicalis 5008; format: toxicity
[9] = Selectivity index, ratio of IC50 for HUVEC to MIC80 for azole-resistant Candida albicans 0304103; format: toxicity; conditions: human
[10] = Selectivity index, ratio of IC50 for HUVEC to MIC80 for azole-resistant Candida albicans 4108; format: toxicity; conditions: human
[11] = Selectivity index, ratio of IC50 for HUVEC to MIC80 for azole-resistant Candida tropicalis 5008; format: toxicity; conditions: human
[12] = molecular target: Lanosterol 14-alpha demethylase (Candida albicans (strain SC5314 / ATCC MYA-2876) (Yeast), UniProt P10613); experiment: Inhibition of CYP51 in azole-resistant Candida albicans 0304103 assessed as ergosterol content at 0.5 ug/ml after 24 hrs by GC-MS analysis (reference value: 75.21%); parameters: scale not given: the % may be the effect or the level left
[13] = molecular target: Histone deacetylase; experiment: Inhibition of HDAC in HUVEC using Boc-Lys(Ac)-AMC as substrate preincubated for 12 hrs followed by substrate addition and measured after 4 hrs by fluorimetry; format: ADME, cell-based, Homo sapiens
[14] = molecular target: Histone deacetylase 1 (Homo sapiens, UniProt Q13547); experiment: Inhibition of HDAC1 (unknown origin) after 30 mins by fluorescence based assay
[15] = molecular target: T1, Protein deacetylase HDAC6 (Homo sapiens, UniProt Q9UBN7); experiment: Inhibition of HDAC6 (unknown origin) after 30 mins by fluorescence based assay
T1 sequence (Q9UBN7 whole entry): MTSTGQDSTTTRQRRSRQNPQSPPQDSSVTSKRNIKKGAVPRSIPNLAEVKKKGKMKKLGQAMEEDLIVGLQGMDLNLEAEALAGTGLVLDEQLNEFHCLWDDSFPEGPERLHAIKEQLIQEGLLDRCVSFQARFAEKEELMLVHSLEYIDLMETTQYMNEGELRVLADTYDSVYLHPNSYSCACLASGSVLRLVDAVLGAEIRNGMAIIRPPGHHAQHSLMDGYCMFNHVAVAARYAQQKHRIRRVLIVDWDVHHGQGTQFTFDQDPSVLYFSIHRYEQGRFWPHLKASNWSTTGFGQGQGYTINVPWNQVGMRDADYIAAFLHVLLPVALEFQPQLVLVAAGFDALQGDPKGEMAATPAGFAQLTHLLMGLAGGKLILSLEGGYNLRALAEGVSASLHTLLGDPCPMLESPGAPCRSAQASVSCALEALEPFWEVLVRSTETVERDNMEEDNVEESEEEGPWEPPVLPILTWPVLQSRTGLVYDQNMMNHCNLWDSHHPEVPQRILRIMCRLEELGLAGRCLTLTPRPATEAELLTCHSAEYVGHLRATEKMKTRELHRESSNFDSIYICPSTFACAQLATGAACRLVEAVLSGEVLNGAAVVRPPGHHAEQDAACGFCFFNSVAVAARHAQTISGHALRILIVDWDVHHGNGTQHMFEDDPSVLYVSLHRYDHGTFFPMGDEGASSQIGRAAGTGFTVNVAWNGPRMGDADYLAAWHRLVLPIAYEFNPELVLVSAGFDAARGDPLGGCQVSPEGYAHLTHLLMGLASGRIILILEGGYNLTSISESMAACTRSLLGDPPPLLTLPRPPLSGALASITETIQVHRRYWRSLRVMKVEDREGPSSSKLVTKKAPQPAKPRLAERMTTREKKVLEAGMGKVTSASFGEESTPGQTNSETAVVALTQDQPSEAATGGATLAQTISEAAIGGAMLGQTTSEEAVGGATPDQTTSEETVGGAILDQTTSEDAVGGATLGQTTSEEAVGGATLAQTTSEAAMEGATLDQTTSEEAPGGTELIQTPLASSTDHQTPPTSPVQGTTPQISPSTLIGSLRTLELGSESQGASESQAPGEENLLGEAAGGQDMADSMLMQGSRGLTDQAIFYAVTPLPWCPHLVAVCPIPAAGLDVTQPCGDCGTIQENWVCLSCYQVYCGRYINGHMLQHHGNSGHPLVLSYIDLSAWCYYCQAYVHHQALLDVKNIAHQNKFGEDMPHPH

[16] = system: Candida albicans; experiment: Inhibition of HDAC in azole-resistant Candida albicans 0304103 assessed as reduction in CDR2 gene expression at 32 ug/ml after 16 hrs by SYBR Green-1 dye based RT-PCR analysis; conditions: 304103
[17] = system: Candida albicans; experiment: Inhibition of biofilm formation in azole resistant Candida albicans 0304103 after 24 hrs by XTT assay; format: functional, organism-based
[18] = system: Candida albicans; experiment: Inhibition of biofilm formation in azole resistant Candida albicans 0304103 assessed as down regulation of ALS3 gene expression at 32 ug /ml after 16 hrs by SYBR Green I dye based RT-PCR analysis; format: functional, organism-based
[19] = system: Candida albicans; experiment: Antifungal activity against azole-resistant Candida albicans 0304103 infected in ICR mouse assessed as reduction in fungal burden in kidney by measuring colony forming units at 20 mg/kg, ip qd for 5 days measured 24 hrs post-last dose (reference value: 6.89 log10CFU/g); format: functional
[20] = system: Candida albicans; experiment: Antifungal activity against azole-resistant Candida albicans 0304103 infected in ICR mouse assessed as inhibition of fungal infection in kidney at 20 mg/kg, ip qd for 5 days and measured on day 6 by periodic acid schiff staining-based histological analysis; format: functional, organism-based
[21] = system: Candida albicans; experiment: Antifungal activity against azole-resistant Candida albicans 0304103 infected in ICR mouse assessed as inhibition of filamentation at 20 mg/kg, ip qd for 5 days and measured on day 6 by periodic acid schiff staining-based histological analysis; format: functional, organism-based
[22] = system: Candida albicans; experiment: Antifungal activity against azole-resistant Candida albicans 0304103 infected in ICR mouse assessed as inhibition of fungal infection in kidney at 20 mg/kg, po qd for 5 days and measured on day 6 by periodic acid schiff staining-based histological analysis; format: functional, organism-based
[23] = system: Candida albicans; experiment: Antifungal activity against azole-resistant Candida albicans 0304103 infected in ICR mouse assessed as inhibition of filamentation at 20 mg/kg, po qd for 5 days and measured on day 6 by periodic acid schiff staining-based histological analysis; format: functional, organism-based

Lanosterol 14-alpha demethylase, sequence (P10613 whole entry): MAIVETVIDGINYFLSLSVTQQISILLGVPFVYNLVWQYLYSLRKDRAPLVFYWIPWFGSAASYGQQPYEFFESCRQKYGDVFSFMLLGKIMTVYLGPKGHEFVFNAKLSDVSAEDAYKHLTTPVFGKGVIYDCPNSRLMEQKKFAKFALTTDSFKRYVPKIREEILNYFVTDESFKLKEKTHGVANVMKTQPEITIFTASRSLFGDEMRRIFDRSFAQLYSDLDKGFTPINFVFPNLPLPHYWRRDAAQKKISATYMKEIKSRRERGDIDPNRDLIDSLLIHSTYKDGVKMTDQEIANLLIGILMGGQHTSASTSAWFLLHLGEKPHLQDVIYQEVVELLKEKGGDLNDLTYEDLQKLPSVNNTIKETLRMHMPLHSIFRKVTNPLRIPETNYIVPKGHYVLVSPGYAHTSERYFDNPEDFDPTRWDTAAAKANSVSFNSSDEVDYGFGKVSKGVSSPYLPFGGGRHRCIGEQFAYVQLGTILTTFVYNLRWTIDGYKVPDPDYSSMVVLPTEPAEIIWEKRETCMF
Histone deacetylase 1, sequence (Q13547 whole entry): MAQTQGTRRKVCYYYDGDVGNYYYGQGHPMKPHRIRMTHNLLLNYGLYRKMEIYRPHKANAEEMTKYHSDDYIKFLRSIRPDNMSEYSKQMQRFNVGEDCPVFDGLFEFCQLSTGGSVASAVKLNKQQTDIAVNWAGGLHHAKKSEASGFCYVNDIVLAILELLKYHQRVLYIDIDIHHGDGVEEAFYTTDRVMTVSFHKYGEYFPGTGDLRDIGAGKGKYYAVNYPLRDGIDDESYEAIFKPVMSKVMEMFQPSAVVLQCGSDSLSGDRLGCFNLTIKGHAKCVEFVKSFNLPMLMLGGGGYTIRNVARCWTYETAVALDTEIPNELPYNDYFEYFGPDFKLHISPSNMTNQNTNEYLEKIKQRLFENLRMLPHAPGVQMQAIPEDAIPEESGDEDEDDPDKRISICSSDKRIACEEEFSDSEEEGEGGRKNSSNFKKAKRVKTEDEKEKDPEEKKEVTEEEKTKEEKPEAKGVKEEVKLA

| SMILES | MIC80 [1] [µg/mL] | MIC80 [2] [µg/mL] | MIC80 [3] [µg/mL] | MIC80 [4] [µg/mL] | IC50 [5] [nM] | selectivity ratio [6] | selectivity ratio [7] | selectivity ratio [8] | selectivity ratio [9] | selectivity ratio [10] | selectivity ratio [11] | Activity [12] [%] | IC50 [13] [nM] | IC50 [14] [nM] | IC50 [15] [nM] | inhibition [16] | inhibition [17] | inhibition [18] | Activity [19] [log10CFU/g] | inhibition [20] | further results |
| --- | --- | --- | --- | --- | --- | --- | --- | --- | --- | --- | --- | --- | --- | --- | --- | --- | --- | --- | --- | --- | --- |
| CN(Cc1ccc(-n2cnn(CCCCc3ccc(C(=O)NO)cc3)c2=O)cc1)CC(O)(Cn1cncn1)c1ccc(F)cc1F (racemic) | 4 (≈ 6.32 µM) | 2 (≈ 3.16 µM) | 2 (≈ 3.16 µM) | 8 (≈ 12.6 µM) | 6700 to 25400 | 2 to 16 | 2 to 16 | 2 to 16 | 2 to 16 | 2 to 16 | 2 to 16 | 61.48 | 6800 | 280 | 120 | Active | Dose-dependent effect | Active | 4.49 | Active | inhibition [21]: Active; inhibition [22]: Active; inhibition [23]: Active |
| CN(Cc1ccc(OCCCOc2ccc(CC(=O)NO)cc2)cc1)CC(O)(Cn1cncn1)c1ccc(F)cc1F (racemic) | 0.125 (≈ 0.215 µM) | 0.25 (≈ 0.43 µM) | 0.5 (≈ 0.86 µM) | 0.5 (≈ 0.86 µM) | 6700 to 25400 | 2 to 16 | 2 to 16 | 2 to 16 | 2 to 16 | 2 to 16 | 2 to 16 | 18.44 | 2700 | 690 | 600 | Active | Dose-dependent effect | Active | 6.16 | Active | inhibition [21]: Active; inhibition [22]: Active; inhibition [23]: Active |
